Assay results as given in patent US20170362210A1, “ANTI-ESTROGENIC COMPOUNDS” (PFIZER INC., priority 2015, published 2017).
Where two headings read alike, the source gives them in different places.

What was measured:
[1] = test system: AP activity in ECC-1 cells; experiment: Alkaline phosphatase (AP) assay in ECC-1 uterine cells, induction of AP activity; type: cell-based, human; conditions: 3 days, normalized to 500 pM E2, maximum activity observed regardless of dose
Protocol: (§1) Method for performing the alkaline phosphatase (AP) assay. ECC-1 cells (American Type Culture Collection, Manassas, Va.) were maintained in RPMI medium plus 10% fetal bovine serum at 37° C. At the beginning of the assay trypsinized cells were resuspended in RPMI medium plus 5% charcoal dextran stripped serum (CDSS, (Hyclone, Logan, Utah)) and plated at a density of 25-50 k cells per well into a 96-well plate for at least 6 hours. Representative compounds were diluted in serum-free medium and added 1:1 to plated cells in replicate wells (2.5% CDSS final). Plates were incubated for 3 days at 37° C. and subsequently frozen at −80° C. to lyse cells after removing the medium. Thawed plates were incubated with a chromogenic substrate of AP, p-nitrophenyl phosphate (Invitrogen, Grand Island, N.Y.), for 40 minutes at 40° C. Absorbances were read at 405 nm using a plate spectrophotometer. AP activity was normalized to 500 pM 17β-estradiol (E2), reported as the maximum activity observed for each individual experiment, regardless of dose.

ERα = target: T1, ERα (Homo sapiens, UniProt P03372); experiment: ERα expression in MCF-7 cell lysates (immunoblot); type: cell-based; conditions: MCF-7 cells, 100 nM compound, serum-free medium, 24 hours, immunoblot band intensity
T1 construct: ERα expression was detected in MCF-7 cell lysates treated with 100 nM antiestrogens in serum-free medium for 24 hours; endogenous in cells; host or cells: MCF-7
T1 sequence (P03372 1-595): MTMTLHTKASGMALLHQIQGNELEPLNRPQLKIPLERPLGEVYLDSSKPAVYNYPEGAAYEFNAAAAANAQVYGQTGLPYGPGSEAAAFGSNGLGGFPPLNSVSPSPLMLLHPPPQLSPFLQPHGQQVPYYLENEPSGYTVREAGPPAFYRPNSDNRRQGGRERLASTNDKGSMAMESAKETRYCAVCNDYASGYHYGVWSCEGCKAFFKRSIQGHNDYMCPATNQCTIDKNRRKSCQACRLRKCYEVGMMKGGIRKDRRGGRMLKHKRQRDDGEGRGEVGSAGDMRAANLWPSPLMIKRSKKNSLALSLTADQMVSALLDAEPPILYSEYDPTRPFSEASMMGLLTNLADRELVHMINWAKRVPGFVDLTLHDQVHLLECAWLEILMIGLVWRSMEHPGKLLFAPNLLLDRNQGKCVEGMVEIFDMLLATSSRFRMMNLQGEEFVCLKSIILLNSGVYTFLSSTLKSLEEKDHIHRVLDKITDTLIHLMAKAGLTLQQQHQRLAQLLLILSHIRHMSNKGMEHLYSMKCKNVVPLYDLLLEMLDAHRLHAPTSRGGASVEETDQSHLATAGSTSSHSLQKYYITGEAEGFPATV
Protocol: ERα expression was detected in MCF-7 cell lysates treated with 100 nM antiestrogens in serum-free medium for 24 hours and immunoblotted with an antibody specific to ERα.
Band intensity was normalized relative to vehicle for each individual experiment and listed in Table 3 (Relative change ERα levels (% vehicle)).

[2] = test system: estrogen-responsive reporter gene (ERE-tk109-Luc) in MCF-7 cells; experiment: Inhibition of E2-induced transcription, ERE-tk109-Luc reporter gene in MCF-7 cells; type: cell-based, human; conditions: 100 pM 17β-estradiol (E2), 18-22 hours, read-out: IC50, inhibition of E2-induced transcription in breast cells
Protocol: Representative compounds were tested for their inhibitory activity of estrogen according to the assay methods described in Hodges-Gallagher, L., Valentine, C. V., El Bader, S. and Kushner, P. J. (2007) “Histone Deacetylase Inhibitors Enhance the Efficacy of Hormonal Therapy Agents on Breast Cancer Cells and Blocks Anti-estrogen-Driven Uterine Cell Proliferation” Breast Cancer Res Treat, November; 105(3):297-309. Specifically, an estrogen-responsive reporter gene (ERE-tk109-Luc) was transiently transfected into MCF-7 cells and treated with anti-estrogens in triplicate in the presence of 100 pM 17β-estradiol (E2) for 18-22 hours. Luciferase activity was normalized to activity of E2 alone and IC50's were calculated using the least squares fit method.

[3] = test system: AP activity in ECC-1 cells; experiment: Alkaline phosphatase (AP) assay in ECC-1 cells co-treated with 500 pM E2; type: cell-based, human; conditions: 3 days
Protocol: as §1
AP activity was assayed as in Example 28 but cells were co-treated with 500 pM E2.

[4] = test system: MCF-7 breast cancer cells; experiment: Inhibition of E2-stimulated proliferation of MCF-7 breast cancer cells; type: cell-based, human; conditions: 100 pM E2, hormone-depleted medium, 6-8 days
Protocol: Proliferation of MCF-7 breast cancer cells was measured using a fluorescent DNA binding dye 6-8 days after treatment in triplicate with representative compounds in the presence of 100 pM E2 in hormone-depleted medium. IC50's were calculated from individual experiments as in Example 25.

[5] = Homo sapiens, MCF7, MCF-7 cells

Row | Relative change ERα levels (% vehicle) (ERα) [% veh] | IC50 ([2]; MCF-7 cells) [nM] | IC50 ([4]; MCF-7 cells) [nM] | IC50 [2, 5] [nM] | IC50 [4, 5] [nM] | Structure (SMILES) | Induction of AP activity in uterine cells (% E2) [1] [% E2] | AP activity (% E2), cells co-treated with 500 pM E2 [3] [% E2]
1 | 55 | 254 | 132 | – | – | CCCN1CC(Oc2ccc(C3Oc4cc(O)ccc4C(C)=C3c3ccccc3)cc2)C1 (single isomer, unassigned) [Compound 118, 4-methyl-3-phenyl-2-(4-((1-propylazetidin-3-yl)oxy)phenyl)-2H-chromen-7-ol] | 104 | 16
2 | 39 | 4 | 10 | – | – | CCCN1CC(Oc2ccc(C3Oc4cc(O)ccc4C(C)=C3c3ccc(O)cc3)cc2)C1 (single isomer, unassigned) [Compound 105, 3-(4-hydroxyphenyl)-4-methyl-2-(4-((1-propylazetidin-3-yl)oxy)phenyl)-2H-chromen-7-ol] | 4 | 4
3 | 50 | 2 | 6 | – | – | CCCN1CC(Cc2ccc(C3Oc4cc(O)ccc4C(C)=C3c3ccc(O)cc3)cc2)C1 (single isomer, unassigned) [Compound 102, 3-(4-hydroxyphenyl)-4-methyl-2-(4-((1-propylazetidin-3-yl)methyl)phenyl)-2H-chromen-7-ol] | 9 | 8
4 | 51 | – | – | 3 | 7 | CCCN1CC(Cc2ccc(C3Oc4cc(O)ccc4C(C)=C3c3ccc(O)cc3)cc2)C1 (stereo not shown) [Compound 101, 3-(4-hydroxyphenyl)-4-methyl-2-(4-((1-propylazetidin-3-yl)methyl)phenyl)-2H-chromen-7-ol] | 9 | 8
5 | 104 | 14 | – | – | 216 | CC1=C(c2ccc(O)cc2)C(c2ccc(OC3CN(CCC(F)(F)F)C3)cc2)Oc2cc(O)ccc21 (single isomer, unassigned) [Compound 110, 3-(4-hydroxyphenyl)-4-methyl-2-(4-((1-(3,3,3-trifluoropropyl)azetidin-3-yl)oxy)phenyl)-2H-chromen-7-ol] | 35 | 36
